Assay [1] concerns the target T1, rI-FABP (SEQ ID NO: 3) variant L19CP10C7, MGI-14R 18L 27C 71I 73F 117D (Rattus norvegicus, UniProt P02693, A74F/K28C/L73A/M19L/S72I/Y118D/Y15R).
T1 construct: 6xHis (C); made in house
The assay is described as follows: fatty acid binding to L19CP10C7. An excerpt: (§1) The major (>75%) FFA species generated from Intralipid® are linoleic, oleic, palmitic and linolenic FFA. Because ADIFAB2 is most specific for stearic acid, for which Intralipid® contains only between 1.5 and 5.5%, FFAu probes with specificity for linoleic, oleic, palmitic and linolenic FFA will provide more accurate and sensitive detection of the rise in plasma FFAu due to Intralipid® hydrolysis. Such FFAu probes have been produced (Table 10) using the methods described in U.S. Pat. No. 7,601,510 and U.S. publication 2010/0298162 and in [Huber A H, Kampf J P, Kwan T, Zhu B and Kleinfeld A M. Fatty acid-specific fluorescent probes and their use in resolving mixtures of different unbound free fatty acids in equilibrium with albumin. Biochemistry 45: 14263-14274, 2006]. Sensitive FFAu probes are necessary for detecting the rise in the patient's FFAu levels, early in the titration of Intralipid®, which is critical for the prevention of unbound bilirubin and FFAu from reaching toxic levels.

Assay [2] addresses T2, rI-FABP (SEQ ID NO: 3) variant L22P5E11, 38R 69T 72A 73K 106A (Rattus norvegicus, UniProt P02693, A70T/A74K/L39R/L73A/R107A).
T2 construct: 6xHis (C); made in house
The experiment in a line: fatty acid binding to L22P5E11.
Source text: as §1

In assay [3] the target is rI-FABP (SEQ ID NO: 3) variant L4BP4B9, 73W 74S (Rattus norvegicus, UniProt P02693, A74W/D75S/L73A). The assay is described as follows: fatty acid binding to L4BP4B9.
Source text: as §1

Assay [4] addresses T3, rI-FABP (SEQ ID NO: 3) variant L61P8 B12, 8I 14L 18L 23L 27Y 30C 31V 53I 55W 72G 73T 74A 78V 82V 91Y 93M 102V 106W 115W 117L (Rattus norvegicus, UniProt P02693, A74T/D75A/F56W/F94M/G32V/G92Y/I24L/K28Y/L103V/L31C/L73G/L79V/M19L/Q116W/R107W/S54I/V9I/W83V/Y118L/Y15L).
T3 construct: 6xHis (C); made in house
The experiment in a line: fatty acid binding to L61P8B12.
Source text: as §1

In assay [5] the target is T4, rI-FABP (SEQ ID NO: 3) variant ADIFAB2, 72A (Rattus norvegicus, UniProt P02693, L73A).
T4 construct: 6xHis (C)
The experiment in a line: fatty acid binding to ADIFAB2.
Source text: as §1

For assay [6], the target named is T5, rI-FABP (SEQ ID NO: 3) variant L119P3E5, 18V 27C 31A 72A 73W (Rattus norvegicus, UniProt P02693, A74W/G32A/K28C/L73A/M19V).
T5 construct: 6xHis (C); made in house
The experiment in a line: fatty acid binding to L119P3E5.
Source text: as §1

The target of assay [7] is T6, rI-FABP (SEQ ID NO: 3) variant L138P1H8 N24C, MGI-18L 21L 23Y 24C 31I 55V 72S 73S 74G 76V 117H 128Y (Rattus norvegicus, UniProt P02693, A74S/D75G/F129Y/F56V/G32I/I24Y/L73S/M19L/M22L/N25C/T77V/Y118H).
T6 construct: 6xHis (C); made in house
The assay is described as follows: fatty acid binding to L138P1H8N24C.
Source text: as §1

The next assay has as its target T7, human albumin (Homo sapiens, UniProt P02768).
T7 construct: Pooled human plasma (Golden West Biologicals) for which [albumin] was 620 μM was spiked with bilirubin; tissue Golden West Biologicals; host or cells: pooled human plasma
The assay is described as follows: Bilirubin binding to a single human albumin site (bilirubin spiked plasma). The settings on record: prediction in good agreement with measured [Bf] in spiked pooled human plasma. As for the experimental part:
Pooled human plasma (Golden West Biologicals) for which [albumin] was 620 μM was spiked with bilirubin to generate plasma samples with bilirubin/albumin ratios from of approximately 0 to 0.9. Measurements of [Bf] were carried out using BL22P1B1-Rh in either a Fluorolog3 (JY Horiba) using 10×10 mm cuvettes or in a FFAu Meter (FFA Sciences) modified for measuring unbound bilirubin by replacing emission filters with ones centered at […]. Measurements of [Bf] were also performed on the same samples using the peroxidase method of Jacobsen and Wennberg [Jacobsen J and Wennberg R P. Determination of unbound bilirubin in the serum of newborns. Clin Chem 20: 783, 1974].

T6 sequence (P02693 with tags, fused parts or gaps with the stated changes): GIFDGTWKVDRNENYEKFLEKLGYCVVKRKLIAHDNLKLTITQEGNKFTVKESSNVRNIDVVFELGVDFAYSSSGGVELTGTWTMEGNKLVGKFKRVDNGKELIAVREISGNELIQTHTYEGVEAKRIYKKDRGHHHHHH
T3 sequence (P02693 with tags, fused parts or gaps with the stated changes): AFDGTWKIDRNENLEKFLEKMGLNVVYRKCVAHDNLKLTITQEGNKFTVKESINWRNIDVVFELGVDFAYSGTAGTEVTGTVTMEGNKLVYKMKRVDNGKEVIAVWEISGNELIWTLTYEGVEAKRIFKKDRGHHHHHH
T1 sequence (P02693 with tags, fused parts or gaps Y15R/M19L/K28C/S72I/L73A/A74F/Y118D): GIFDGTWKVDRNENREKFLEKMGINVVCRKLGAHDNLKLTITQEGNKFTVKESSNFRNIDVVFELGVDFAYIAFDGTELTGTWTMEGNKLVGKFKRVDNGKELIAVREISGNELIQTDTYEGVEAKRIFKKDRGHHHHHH
T2 sequence (P02693 with tags, fused parts or gaps L39R/A70T/L73A/A74K/R107A): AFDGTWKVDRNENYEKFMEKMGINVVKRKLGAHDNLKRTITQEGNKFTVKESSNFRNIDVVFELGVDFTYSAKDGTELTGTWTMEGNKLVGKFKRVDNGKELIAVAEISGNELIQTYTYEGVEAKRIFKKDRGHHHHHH
Sequence of rI-FABP (SEQ ID NO: 3) variant L4BP4B9, 73W 74S (P02693 with tags, fused parts or gaps L73A/A74W/D75S): as the sequence (P02693 with tags, fused parts or gaps L39R/A70T/L73A/A74K/R107A) above, with R38L, T69A, K73W, D74S, A106R counted along it
T4 sequence (P02693 with tags, fused parts or gaps L73A): as the sequence (P02693 with tags, fused parts or gaps L39R/A70T/L73A/A74K/R107A) above, with R38L, T69A, K73A, A106R counted along it
T5 sequence (P02693 with tags, fused parts or gaps M19V/K28C/G32A/L73A/A74W): as the sequence (P02693 with tags, fused parts or gaps L39R/A70T/L73A/A74K/R107A) above, with M18V, K27C, G31A, R38L, T69A, K73W, A106R counted along it
T7 sequence (P02768 25-609): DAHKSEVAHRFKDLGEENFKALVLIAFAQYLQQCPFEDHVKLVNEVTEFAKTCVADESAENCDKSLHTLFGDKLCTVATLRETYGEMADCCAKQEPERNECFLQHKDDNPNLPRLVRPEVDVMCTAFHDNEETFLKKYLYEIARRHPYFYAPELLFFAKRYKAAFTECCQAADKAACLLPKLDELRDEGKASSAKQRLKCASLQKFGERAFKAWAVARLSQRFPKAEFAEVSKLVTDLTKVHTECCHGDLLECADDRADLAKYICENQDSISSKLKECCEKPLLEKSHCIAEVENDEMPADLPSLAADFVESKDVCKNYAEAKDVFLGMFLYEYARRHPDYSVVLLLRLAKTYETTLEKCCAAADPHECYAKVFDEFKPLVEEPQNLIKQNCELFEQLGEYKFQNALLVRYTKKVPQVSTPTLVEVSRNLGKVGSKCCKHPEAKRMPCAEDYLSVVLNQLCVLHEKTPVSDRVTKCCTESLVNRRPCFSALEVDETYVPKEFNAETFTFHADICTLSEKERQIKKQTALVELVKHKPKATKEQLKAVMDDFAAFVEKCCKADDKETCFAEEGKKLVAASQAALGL

On to `CCCCCCCC/C=C\CCCCCCCC(=O)O` [Oleate 18:1 (n-9), Oleate], for which the Kd – broadly, the free concentration of one partner at which half of the binding sites on the other are occupied at equilibrium, for simple one-to-one binding – turned out to be 1.2 nM in assay [1]; 3.1 nM in assay [2]; 18.9 nM in assay [3]; 4.3 nM in assay [4]; 21.5 nM in assay [5]; 12.7 nM in assay [6]. For the same molecule, in assay [7], binding was put at a Kd of 7.6 nM.

Turning to `C=CC1=C(C)/C(=C/c2[nH]c(Cc3[nH]c(/C=C4\NC(=O)C(C)=C4C=C)c(C)c3CCC(=O)O)c(CCC(=O)O)c2C)NC1=O` [Bilirubin, unconjugated bilirubin IXα], on human albumin, the Kd is 20 nM.

As for `CCCCC/C=C\C/C=C\CCCCCCCC(=O)O` [Linoleate 18:2 (n-6), Linoleate], the Kd was 0.8 nM in assay [1]; 6.7 nM in assay [2]; 40.8 nM in assay [3]; 25.7 nM in assay [4]; 105 nM in assay [5]; 23 nM in assay [6]. In addition, the affinity in assay [7], expressed as Kd, was 6.5 nM.

Source of the values: patent publication US10295551B2, “Development and use of fluorescent probes of unbound bilirubin” (Alan Marc Kleinfeld, priority 2011, dated 2019).
